Molecular target: T1, GST-Aurora A (Homo sapiens, UniProt O14965)
T1 construct: N-terminal GST fusion with full length Aurora A (1-403 amino acids); purchased Carna Biosciences 05-101
T1 sequence (O14965 1-403): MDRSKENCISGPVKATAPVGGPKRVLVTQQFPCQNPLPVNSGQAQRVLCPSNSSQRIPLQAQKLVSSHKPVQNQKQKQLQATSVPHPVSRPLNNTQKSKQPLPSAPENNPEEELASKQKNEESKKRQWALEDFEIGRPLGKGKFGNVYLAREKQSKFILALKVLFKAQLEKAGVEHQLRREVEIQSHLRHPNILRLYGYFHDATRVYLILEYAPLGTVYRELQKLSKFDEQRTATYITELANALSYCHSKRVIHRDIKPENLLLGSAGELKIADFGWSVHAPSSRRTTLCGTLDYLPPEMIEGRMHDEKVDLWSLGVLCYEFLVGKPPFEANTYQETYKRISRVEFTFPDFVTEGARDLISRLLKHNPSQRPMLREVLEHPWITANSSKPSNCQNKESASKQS
Assay: Aurora A kinase biochemical mobility shift assay (Caliper LC3000 / Desktop Profiler)
Conditions: AK A (Aurora kinase A) inhibition
Procedure: The Aurora assays described here are performed on two Caliper Life Sciences systems: the LC3000 and the Desktop Profiler. The RON kinase assays are performed on the Desktop Profiler only. These provide data on enzyme activity via measurement of the relative amounts of phosphorylated or unphosphorylated fluorescently labelled substrate peptide at the end of an enzymatic reaction. These different states of peptide are resolved by applying a potential difference across the sample. The presence of the charged phosphate group on the product (as opposed to the substrate) causes a different peptide mobility between the two peptides. This is visualized by excitation of the fluorescent label on the substrate and product peptides and represented as peaks within the analysis software.
In order to measure inhibitor activity of Aurora A inhibitors in the Caliper Life Sciences LC3000, a TTP Mosquito liquid handling instrument is used to place 0.25 ul of the appropriate concentration of inhibitor in 100% DMSO (for a dose response curve calculation) into each well of a 384-well plate. To this reaction components are added to a final volume of 25 ul: • 0.067 ng/ul GST-Aurora A (Carna Biosciences 05-101. N-terminal GST fusion with full length Aurora A (1-403 amino acids), accession number NP_940835.1). • 15 uM ATP (Fluka, 02055) • 1 mM DTT (Sigma, D0632) • 1 mM MgCl2 (Sigma, M1028) • 1 uM substrate peptide (sequence FITC-LRRASLG-(CONH2), synthesized by Tufts Peptide Synthesis service. • 100 mM HEPES pH 7.5 (Calbiochem, 391338) • 0.015% Brij-35 (Sigma, B4184)
The reaction is incubated for 90 min at 25 C, and then stopped by the addition of 70 ul of Stop buffer (100 mM HEPES pH 7.5, 0.015% Brij-35, 10 mM EDTA (Sigma, E7889)).
The plate is read on a Caliper LC3000 in an Off-Chip mobility shift assay format, using the following parameters for a 12-sipper chip: screening pressure −1.8 psi, upstream voltage −2700, downstream voltage −1000. These conditions cause unphosphorylated substrate and phosphorylated product peptide to resolve as separate peaks allowing direct measurement of percentage of conversion of substrate to product. The percent conversion can be plotted against concentration of inhibitor to produce a sigmoidal dose response curve, from which an IC50 can be calculated using XLFit for Microsoft Excel.
The Desktop Profiler utilizes the same priniciple as the LC3000 for calculating percentage conversion of a substrate to product. Caliper Life Sciences provides proprietary flash frozen pre-made 384 well plates containing selected kinases. Each column in the 384 well plate contains a particular selected kinase. A second plate, the ‘substrate plate’ contains a mix of fluorescently labeled peptide substrate and ATP. These are arranged in columns so that transfer for substrate plate to enzyme plate provides the correct enzyme with the correct substrate/ATP concentration. Compounds are added to a thawed enzyme plate in the desired format, in single concentrations. Reactions are initiated by transfer of the substrate/ATP mix from the substrate plate. The enzyme plate is incubated for 90 minutes at 25 C. The reaction is stopped by addition of 70 ul of Stop Buffer (100 mM HEPES pH 7.5, 0.015% Brij-35, 10 mM EDTA (Sigma, E7889)).
Reading of the plate in the Profiler is identical to the LC3000, and the ratio between substrate and product peaks provides the activity of the enzyme in that well. This is best represented by a plate heat map which colors each well by percent inhibition as compared to positive and negative controls (no inhibitors and no ATP respectively).

| SMILES | IC50 [nM] |
| --- | --- |
| CCN1Cc2c(Nc3ccc(NC(=O)c4ccc(F)cc4C(F)(F)F)cc3)ccnc2NC1=O [Example 34, N-(4-(3-ethyl-2-oxo-1,2,3,4-tetrahydropyrido [2,3-d]pyrimidin-5-ylamino)phenyl)-4-fluoro-2-(trifluoromethyl) benzamide] | < 10 |
| CN1Cc2c(Nc3ccc(NC(=O)c4ccccc4F)cc3F)ccnc2NC1=O [Example 41, 2-fluoro-N-(3-fluoro-4-(3-methyl-2-oxo-1,2,3,4-tetrahydropyrido [2,3-d]pyrimidin-5-ylamino)phenyl) benzamide] | 10 to 100 |
| COc1cc(CNC(=O)c2ccc(-c3ccnc4c3CNC(=O)N4)s2)ccc1F [Example 130, N-(4-fluoro-3-methoxybenzyl)-5-(2-oxo-1,2,3,4-tetrahydropyrido[2,3-d]pyrimidin-5-yl)thiophene-2-carboxamide] | 10 to 100 |
| CN1Cc2c(Nc3ccc(NC(=O)c4ccc(F)cc4C(F)(F)F)cc3)ccnc2NC1=O [Example 21, 4-fluoro-N-(4-(3-methyl-2-oxo-1,2,3,4-tetrahydropyrido [2,3-d]pyrimidin-5-ylamino)phenyl)-2-(trifluoromethyl) benzamide] | < 10 |
| COc1ccc(CN2Cc3c(Nc4ccc(NC(=O)c5ccc(F)cc5C(F)(F)F)cc4)ccnc3NC2=O)cc1 [Example 5, 4-fluoro-N-(4-(3-(4-methoxybenzyl)-2-oxo-1,2,3,4-tetrahydropyrido [2,3-d]pyrimidin-5-ylamino)phenyl)-2-(trifluoromethyl) benzamide] | 100 to 1000 |
| O=C(Nc1ccc(Nc2ccnc3c2CN(CCCO)C(=O)N3)cc1)c1ccc(F)cc1C(F)(F)F [Example 32, 4-fluoro-N-(4-(3-(3-hydroxypropyl)-2-oxo-1,2,3,4-tetrahydropyrido [2,3-d]pyrimidin-5-ylamino)phenyl)-2-(trifluoromethyl) benzamide] | < 10 |
| CN1Cc2c(Nc3ccc(NC(=O)c4cccc(F)c4)cc3F)ccnc2NC1=O [Example 20, 3-fluoro-N-(3-fluoro-4-(3-methyl-2-oxo-1,2,3,4-tetrahydropyrido [2,3-d]pyrimidin-5-ylamino)phenyl) benzamide] | < 10 |
| COc1ccc(CN2Cc3c(Nc4ccc(NC(=O)CC(F)(F)F)cc4)ccnc3NC2=O)cc1 [Example 100, 3,3,3-trifluoro-N-(4-{[3-(4-methoxybenzyl)-2-oxo-1,2,3,4-tetrahydropyrido[2,3-d]pyrimidin-5-yl]amino}phenyl)propanamide] | 100 to 1000 |
| COc1ccc(CN2Cc3c(Nc4ccc(NC(=O)Nc5ccc(F)cc5C(F)(F)F)cc4)ccnc3NC2=O)cc1 [Example 119, N-[4-fluoro-2-(trifluoromethyl)phenyl]-N′-(4-{[3-(4-methoxybenzyl)-2-oxo-1,2,3,4-tetrahydropyrido[2,3-d]pyrimidin-5-yl]amino}phenyl)urea] | 100 to 1000 |
| CN1Cc2c(Nc3ccc(NC(=O)c4cccc(F)c4F)c(F)c3)ccnc2NC1=O [Example 39, 2,3-difluoro-N-(2-fluoro-4-(3-methyl-2-oxo-1,2,3,4-tetrahydropyrido [2,3-d]pyrimidin-5-ylamino)phenyl) benzamide] | 10 to 100 |
| CCN1Cc2c(Nc3ccc(NC(=O)c4ccc(F)cc4C(F)(F)F)cc3F)ccnc2NC1=O [Example 36, N-(4-(3-ethyl-2-oxo-1,2,3,4-tetrahydropyrido [2,3-d]pyrimidin-5-ylamino)-3-fluorophenyl)-4-fluoro-2-(trifluoromethyl) benzamide] | < 10 |
| COc1ccc(CN2Cc3c(Nc4ccc(NC(=O)Nc5ccc(F)c(F)c5)cc4)ccnc3NC2=O)cc1 [Example 120, N-(3,4-difluorophenyl)-N′-(4-{[3-(4-methoxybenzyl)-2-oxo-1,2,3,4-tetrahydropyrido[2,3-d]pyrimidin-5-yl]amino}phenyl)urea] | 100 to 1000 |
| CN1Cc2c(Nc3ccc(NC(=O)CC4CC4)cc3)ccnc2NC1=O [Example 23, 2-cyclopropyl-N-(4-(3-methyl-2-oxo-1,2,3,4-tetrahydropyrido [2,3-d]pyrimidin-5-ylamino)phenyl) acetamide] | 100 to 1000 |
| COc1ccc(CN2Cc3c(Nc4ccc(NC(=O)c5ccc(F)cc5C(F)(F)F)cc4F)ccnc3NC2=O)cc1 [Example 112, 4-fluoro-N-(3-fluoro-4-{[3-(4-methoxybenzyl)-2-oxo-1,2,3,4-tetrahydropyrido[2,3-d]pyrimidin-5-yl]amino}phenyl)-2-(trifluoromethyl)benzamide] | 10 to 100 |
| O=C(Nc1ccc(Nc2ccnc3c2CN(c2ccccc2)C(=O)N3)c(F)c1)c1cccc(F)c1 [Example 26, 3-fluoro-N-(3-fluoro-4-(2-oxo-3-phenyl-1,2,3,4-tetrahydropyrido [2,3-d]pyrimidin-5-ylamino)phenyl) benzamide] | 10 to 100 |
| O=C(Nc1ccc(Nc2ccnc3c2CN(CCO)C(=O)N3)cc1)c1ccc(F)cc1C(F)(F)F [Example 30, 4-fluoro-N-(4-(3-(2-hydroxyethyl)-2-oxo-1,2,3,4-tetrahydropyrido [2,3-d]pyrimidin-5-ylamino)phenyl)-2-(trifluoromethyl) benzamide] | 10 to 100 |
| COc1ccc(CN2Cc3c(Nc4ccc(NC(=O)c5ccccc5F)cc4F)ccnc3NC2=O)cc1 [Example 114, 2-fluoro-N-(3-fluoro-4-{[3-(4-methoxybenzyl)-2-oxo-1,2,3,4-tetrahydropyrido[2,3-d]pyrimidin-5-yl]amino}phenyl)benzamide] | 100 to 1000 |
| O=C1NCc2c(Nc3ccc(NC(=O)c4ccc(F)cc4C(F)(F)F)cc3F)ccnc2N1 [Example 116, 4-fluoro-N-{3-fluoro-4-[(2-oxo-1,2,3,4-tetrahydropyrido[2,3-d]pyrimidin-5-yl)amino]phenyl}-2-(trifluoromethyl)benzamide] | < 10 |
| O=C(Nc1ccc(Nc2ccnc3c2CN(c2ccc(CN4CCCC4)cc2)C(=O)N3)cc1)c1ccccc1 [Example 9, N-(4-(2-oxo-3-(4-(pyrrolidin-1-ylmethyl)phenyl)-1,2,3,4-tetrahydropyrido[2,3-d]pyrimidin-5-ylamino)phenyl)benzamide] | 100 to 1000 |
| COc1ccc(CN2Cc3c(-c4ccc(C(=O)NCc5ccc(F)c(OC)c5)s4)ccnc3NC2=O)cc1 [Example 129, N-(4-fluoro-3-methoxybenzyl)-5-[3-(4-methoxybenzyl)-2-oxo-1,2,3,4-tetrahydropyrido[2,3-d]pyrimidin-5-yl]thiophene-2-carboxamide] | 10 to 100 |
| O=C(Nc1ccc(Nc2ccnc3c2CN(CCCN2CCCC2=O)C(=O)N3)cc1)c1ccc(F)cc1C(F)(F)F [Example 31, 4-fluoro-N-(4-(2-oxo-3-(3-(2-oxopyrrolidin-1-yl)propyl)-1,2,3,4-tetrahydropyrido [2,3-d]pyrimidin-5-ylamino)phenyl)-2-(trifluoromethyl) benzamide] | 10 to 100 |
| O=C1NCc2c(Nc3ccc(NC(=O)c4ccc(F)cc4C(F)(F)F)cc3)ccnc2N1 [Example 6, 4-fluoro-N-(4-(2-oxo-1,2,3,4-tetrahydropyrido[2,3-d]pyrimidin-5-ylamino)phenyl)-2-(trifluoromethyl) benzamide] | < 10 |
| O=C(Nc1ccc(Nc2ccnc3c2CN(C2CC2)C(=O)N3)cc1)c1ccc(F)cc1C(F)(F)F [Example 15, N-(4-(3-cyclopropyl-2-oxo-1,2,3,4-tetrahydropyrido [2,3-d]pyrimidin-5-ylamino)phenyl)-4-fluoro-2-(trifluoromethyl) benzamide] | 10 to 100 |

From patent US8569295B2, “Bicyclic urea compounds” (Merck Patent GmbH, priority 2009, dated 2013)
